In test [1] the target is T1, Steryl-sulfatase (Homo sapiens, UniProt P08842).
T1 sequence (P08842 whole entry): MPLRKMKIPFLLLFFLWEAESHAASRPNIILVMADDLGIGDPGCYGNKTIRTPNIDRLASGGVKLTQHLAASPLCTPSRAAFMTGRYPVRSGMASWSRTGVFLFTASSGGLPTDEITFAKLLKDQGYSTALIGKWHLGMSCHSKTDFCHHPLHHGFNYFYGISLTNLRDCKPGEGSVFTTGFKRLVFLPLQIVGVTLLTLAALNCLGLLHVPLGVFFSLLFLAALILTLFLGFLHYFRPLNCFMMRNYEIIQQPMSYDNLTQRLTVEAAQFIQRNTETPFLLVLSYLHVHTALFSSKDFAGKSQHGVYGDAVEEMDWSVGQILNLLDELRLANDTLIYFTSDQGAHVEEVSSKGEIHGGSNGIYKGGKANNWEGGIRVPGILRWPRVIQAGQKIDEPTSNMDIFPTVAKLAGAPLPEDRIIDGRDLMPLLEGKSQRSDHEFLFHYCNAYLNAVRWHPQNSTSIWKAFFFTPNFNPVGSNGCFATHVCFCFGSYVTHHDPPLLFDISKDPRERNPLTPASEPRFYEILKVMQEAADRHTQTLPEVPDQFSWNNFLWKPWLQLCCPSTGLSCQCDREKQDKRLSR

The target in another test is Estrogen receptor beta (Homo sapiens, UniProt Q92731). Type of test: cell-based, MCF7.
For test [2], the target named is T1, Steryl-sulfatase. This is another data set of the same source.
For test [3], the target named is T2, Aromatase (Homo sapiens, UniProt P11511).
T2 sequence (P11511 whole entry): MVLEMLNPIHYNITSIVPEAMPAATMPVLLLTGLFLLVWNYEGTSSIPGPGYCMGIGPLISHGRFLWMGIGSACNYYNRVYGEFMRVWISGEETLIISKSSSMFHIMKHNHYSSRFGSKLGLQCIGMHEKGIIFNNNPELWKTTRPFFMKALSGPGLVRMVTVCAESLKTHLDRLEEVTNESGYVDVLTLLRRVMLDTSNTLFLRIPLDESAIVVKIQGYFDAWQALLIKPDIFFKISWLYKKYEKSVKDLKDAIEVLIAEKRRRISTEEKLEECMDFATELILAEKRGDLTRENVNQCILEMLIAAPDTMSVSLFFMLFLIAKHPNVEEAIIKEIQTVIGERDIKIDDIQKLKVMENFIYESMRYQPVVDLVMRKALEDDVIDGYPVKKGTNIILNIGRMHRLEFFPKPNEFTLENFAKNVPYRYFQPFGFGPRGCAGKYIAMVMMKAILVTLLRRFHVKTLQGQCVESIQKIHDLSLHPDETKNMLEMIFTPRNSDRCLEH
The test is classed as microsomes, Placenta, Microsome.

The target of test [4] is T2, Aromatase.
Test [5] deals with T3, Estrogen receptor (Homo sapiens, UniProt P03372).
T3 sequence (P03372 whole entry): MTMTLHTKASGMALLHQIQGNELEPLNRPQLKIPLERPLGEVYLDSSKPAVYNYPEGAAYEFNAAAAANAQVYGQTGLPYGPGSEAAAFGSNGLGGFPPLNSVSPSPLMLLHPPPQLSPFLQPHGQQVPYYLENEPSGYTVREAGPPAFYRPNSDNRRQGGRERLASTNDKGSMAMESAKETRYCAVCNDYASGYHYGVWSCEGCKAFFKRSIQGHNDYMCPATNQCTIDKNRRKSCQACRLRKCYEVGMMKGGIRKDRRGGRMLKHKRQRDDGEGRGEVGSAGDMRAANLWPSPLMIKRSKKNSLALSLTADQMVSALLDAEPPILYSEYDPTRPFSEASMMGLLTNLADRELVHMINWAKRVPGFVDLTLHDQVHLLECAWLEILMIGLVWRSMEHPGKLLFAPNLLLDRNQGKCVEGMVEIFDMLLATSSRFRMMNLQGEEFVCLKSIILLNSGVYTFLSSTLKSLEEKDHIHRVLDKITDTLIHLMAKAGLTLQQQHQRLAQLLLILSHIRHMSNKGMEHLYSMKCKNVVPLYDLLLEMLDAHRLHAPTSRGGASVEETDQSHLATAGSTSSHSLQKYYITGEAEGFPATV

For test [6], the target named is T3, Estrogen receptor. This is another data set of the same source.
For test [7], the target named is T2, Aromatase. Type of test: microsomes, Placenta, Microsome. This is another data set of the same source.
Test [8] has as its target T1, Steryl-sulfatase. Type of test: microsomes, Placenta, Microsome.
In test [9] the target is T3, Estrogen receptor. The test is classed as cell-based, MCF7.
The target in test [10] is T3, Estrogen receptor. This is another data set of the same source.
The target in test [11] is Receptor tyrosine-protein kinase erbB-2 (Homo sapiens, UniProt P04626).
The target of test [12] is RAF proto-oncogene serine/threonine-protein kinase (Homo sapiens, UniProt P04049). Type of test: cell-based, MCF7.
Test [13] deals with T1, Steryl-sulfatase. The source holds these as a separate data set.
The subject of another test is MCF7. The experiment in a line: cells. Type of test: functional, cell-based. As to conditions: Homo sapiens, MCF7, 72 h.
Test [14] addresses T1, Steryl-sulfatase. The test is classed as cell-based, HEK293.
The target in test [15] is T1, Steryl-sulfatase. Type of test: cell-based, HEK293. The source holds these as a separate data set.

Structures are written as SMILES.

Ki and IC50 data for 25 compounds are collected here from ChEMBL document CHEMBL4396892, “Estrogen signaling: An emanating therapeutic target for breast cancer treatment” (Eur J Med Chem, 2019).

RAF proto-oncogene serine/threonine-protein kinase, sequence (P04049 whole entry): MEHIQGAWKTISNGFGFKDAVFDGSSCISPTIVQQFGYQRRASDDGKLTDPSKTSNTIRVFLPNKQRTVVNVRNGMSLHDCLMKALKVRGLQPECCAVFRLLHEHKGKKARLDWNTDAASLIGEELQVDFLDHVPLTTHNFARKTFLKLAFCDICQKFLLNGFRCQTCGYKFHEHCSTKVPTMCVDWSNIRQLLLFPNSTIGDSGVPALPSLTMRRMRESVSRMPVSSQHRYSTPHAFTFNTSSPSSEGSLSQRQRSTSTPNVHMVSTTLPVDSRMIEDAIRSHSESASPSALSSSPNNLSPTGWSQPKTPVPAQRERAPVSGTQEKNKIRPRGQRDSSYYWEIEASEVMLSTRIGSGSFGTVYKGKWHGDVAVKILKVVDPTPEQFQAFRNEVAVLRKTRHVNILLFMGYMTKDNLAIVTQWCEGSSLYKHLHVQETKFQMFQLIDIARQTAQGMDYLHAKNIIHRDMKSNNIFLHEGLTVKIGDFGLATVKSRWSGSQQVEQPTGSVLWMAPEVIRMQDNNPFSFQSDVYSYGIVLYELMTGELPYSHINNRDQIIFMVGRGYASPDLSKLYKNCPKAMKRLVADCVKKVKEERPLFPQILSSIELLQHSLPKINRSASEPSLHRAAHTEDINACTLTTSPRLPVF
Receptor tyrosine-protein kinase erbB-2, sequence (P04626 whole entry): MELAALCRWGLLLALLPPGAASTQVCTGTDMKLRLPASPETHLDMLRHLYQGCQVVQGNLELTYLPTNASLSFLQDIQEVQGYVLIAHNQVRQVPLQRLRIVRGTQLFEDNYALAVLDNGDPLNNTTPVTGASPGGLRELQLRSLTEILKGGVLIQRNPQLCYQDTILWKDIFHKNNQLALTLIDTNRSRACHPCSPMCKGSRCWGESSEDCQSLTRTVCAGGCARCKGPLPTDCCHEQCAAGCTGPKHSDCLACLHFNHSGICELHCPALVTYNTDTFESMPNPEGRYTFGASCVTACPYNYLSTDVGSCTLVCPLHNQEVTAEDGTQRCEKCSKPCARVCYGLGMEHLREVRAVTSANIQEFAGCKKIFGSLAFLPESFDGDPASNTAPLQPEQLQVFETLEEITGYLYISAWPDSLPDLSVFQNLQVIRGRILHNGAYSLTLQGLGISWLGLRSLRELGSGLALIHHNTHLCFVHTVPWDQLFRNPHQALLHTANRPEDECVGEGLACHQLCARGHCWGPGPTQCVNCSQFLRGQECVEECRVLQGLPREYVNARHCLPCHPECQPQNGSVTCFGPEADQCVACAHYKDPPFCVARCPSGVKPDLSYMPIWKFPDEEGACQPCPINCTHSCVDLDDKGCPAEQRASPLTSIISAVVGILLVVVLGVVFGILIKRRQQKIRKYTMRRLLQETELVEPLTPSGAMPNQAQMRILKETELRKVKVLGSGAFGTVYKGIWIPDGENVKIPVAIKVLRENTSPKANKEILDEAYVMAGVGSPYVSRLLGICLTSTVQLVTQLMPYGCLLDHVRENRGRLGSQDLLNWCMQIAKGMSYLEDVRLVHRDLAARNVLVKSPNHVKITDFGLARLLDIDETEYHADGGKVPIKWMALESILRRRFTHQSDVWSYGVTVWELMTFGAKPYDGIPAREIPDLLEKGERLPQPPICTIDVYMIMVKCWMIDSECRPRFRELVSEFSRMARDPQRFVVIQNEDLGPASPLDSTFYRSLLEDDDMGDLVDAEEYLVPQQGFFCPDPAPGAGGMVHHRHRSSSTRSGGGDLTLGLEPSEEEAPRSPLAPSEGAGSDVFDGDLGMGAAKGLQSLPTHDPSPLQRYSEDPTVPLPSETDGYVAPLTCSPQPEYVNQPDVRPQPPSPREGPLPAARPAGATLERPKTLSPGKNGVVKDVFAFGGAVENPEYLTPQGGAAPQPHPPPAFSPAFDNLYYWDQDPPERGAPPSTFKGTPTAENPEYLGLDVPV
Estrogen receptor beta, sequence (Q92731 whole entry): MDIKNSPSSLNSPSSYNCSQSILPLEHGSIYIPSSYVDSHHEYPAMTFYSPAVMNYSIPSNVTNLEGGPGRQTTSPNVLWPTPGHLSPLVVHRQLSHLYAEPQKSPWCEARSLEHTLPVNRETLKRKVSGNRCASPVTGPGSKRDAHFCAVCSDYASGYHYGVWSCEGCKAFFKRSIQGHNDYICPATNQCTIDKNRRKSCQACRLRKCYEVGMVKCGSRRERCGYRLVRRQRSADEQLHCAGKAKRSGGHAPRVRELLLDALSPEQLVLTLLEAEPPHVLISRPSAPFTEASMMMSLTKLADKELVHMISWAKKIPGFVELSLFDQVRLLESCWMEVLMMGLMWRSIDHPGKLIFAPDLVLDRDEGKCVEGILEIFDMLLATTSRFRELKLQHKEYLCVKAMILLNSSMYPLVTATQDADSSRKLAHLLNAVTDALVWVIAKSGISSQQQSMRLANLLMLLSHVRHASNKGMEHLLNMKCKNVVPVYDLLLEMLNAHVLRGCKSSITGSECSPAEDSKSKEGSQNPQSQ

As to `C[C@]12CC[C@@H]3c4ccc(C(F)(F)S(N)(=O)=O)cc4CC[C@H]3[C@@H]1CCC2=O`, the Ki at Steryl-sulfatase [1] lay within 28000 to 82000 nM. As for `C[C@]12CC[C@@H]3c4ccc(NC(=O)C(F)(F)F)cc4CC[C@H]3[C@@H]1CCC2=O`, the IC50 against Steryl-sulfatase [1] was 8700 nM. This lies in the single-digit micromolar range. As to `Cc1c(-c2ccc(O)cc2)nn(-c2ccc(O)cc2)c1-c1ccc(OCCN2CCCCC2)cc1`, the Ki at Estrogen receptor beta was 1800 nM.

`COc1c2c(c(O)c3c1C(=O)c1cc(C)c(O)cc1C3=O)-c1c(cc(/C=N/NC(=S)NC3CCCCC3)c(C(=O)O)c1O)CC2`: on Steryl-sulfatase [2], the IC50 turned out to be 460 nM and the Ki was 350 nM. On Aromatase [3], `N#Cc1ccc(N(Cc2ccc(Br)cc2)n2cnnc2)cc1` had a 50% inhibitory concentration (IC50) of 0.4 nM. That is a sub-nanomolar value. As to `C[C@]12CCC(=O)C=C1C=C(CCc1ccccc1)[C@@H]1[C@@H]2CC[C@]2(C)C(=O)CC[C@@H]12`, on Aromatase [4], the affinity, expressed as Ki, was 174 nM. As to `O=c1oc2cc(OP(=O)(O)O)ccc2c2c1CCCC2`, the IC50 against Steryl-sulfatase [1] stood at 37800 nM. This lies in the double-digit micromolar range. For `CC/C(=C(\c1ccc(O)cc1)c1ccc(OCCNCCCCCCNC(=O)CCC2=[N+]3C(=CC4=CC=C(C)C4[B-]3(F)F)C=C2)cc1)c1ccccc1` (centres undefined), on Estrogen receptor [5], the IC50 was 30 nM. `CC/C(=C(/c1ccc(OCCN(C)C)cc1)c1ccc(OS(N)(=O)=O)cc1)c1ccccc1` displayed an inhibitory constant (Ki) at Steryl-sulfatase [1] of 35900 nM.

For the compound `CC(C)(C#N)c1cc(CSc2ccc(OS(N)(=O)=O)cc2)cc(Cn2cncn2)c1`, the IC50 against Estrogen receptor [6] turned out to be 3.5 nM. This lies in the single-digit nanomolar range. Consider `COc1ccc2c(c1)C(N)=C(Cc1ccncc1)C2=O`, for which 100 nM corresponded to half-maximal inhibition against Aromatase [7] (IC50). In other words, the sub-micromolar range. On Steryl-sulfatase [8], `CCCCCCCCCCCCCC(=O)NCc1ccc(OS(N)(=O)=O)cc1` returned an IC50 of 72 nM. `CC/C(=C(\c1ccc(OCCN(C)C)cc1)c1ccc(OS(N)(=O)=O)cc1)c1ccccc1` yielded a Ki on Steryl-sulfatase [1] above 500000 nM. `O=c1cc(-c2ccccc2)nc2ccc(-c3ccccc3O)cn12`: at Estrogen receptor [6], it took 250000 nM to reach half-maximal inhibition (IC50). In the case of `C/C=C1/[C@H](O)C[C@H]2[C@@H]3CCc4cc(OC)ccc4[C@H]3CC[C@]12C`, the IC50 at Estrogen receptor [9] is 5490 nM. Turning to `N#Cc1ccc2sc(C34CC5CC(CC(C5)C3)C4)cc(=O)c2c1`, the IC50 against Steryl-sulfatase [1] was 180 nM. In the case of `CO[C@H]1/C=C\C=C(/C)C(=O)NC2=CC(=O)C(NC/C=C/C[C@@H]3C[C@H]4[C@@H]5CCc6cc(O)ccc6[C@H]5CC[C@]4(C)[C@H]3O)=C(C[C@@H](C)C[C@H](OC)[C@H](O)[C@@H](C)/C=C(\C)[C@@H]1OC(N)=O)C2=O` (stereo in doubt), the IC50 came out at 80 nM against Estrogen receptor [10], 100 nM in test [11] and 1500 nM in [12].

Turning to `CC(C)(C)c1cc(=O)c2cc(OS(N)(=O)=O)ccc2o1`, the midpoint of inhibition on Steryl-sulfatase [13], the IC50, lay at 0.047 nM. Same read-out and setting: the same measure for `CCCCCCCCCc1cc(=O)c2cc(OS(N)(=O)=O)ccc2o1`: 0.089 nM. `O=[N+]([O-])c1ccc(N(Cc2ccc(Br)cc2)n2cnnc2)cc1` yielded a concentration for half-maximal inhibition (IC50) at Aromatase [3] of 0.12 nM.

In turn, `CC(O)[C@@]12C[C@@H]1C[C@H]1[C@@H]3CCc4cc(O)ccc4[C@H]3CC[C@]12C` (some centres undefined) gave an IC50 in the test on MCF7 of 3000 nM.

Compound `N#Cc1ccc(N(Cc2ccc(OS(N)(=O)=O)cc2F)n2cnnc2)cc1` returned an IC50 on Steryl-sulfatase [1] of 2.5 nM. On Aromatase [4], `Oc1ccc2c(c1)O[C@@H](c1ccccc1)C[C@@H]2n1ccnc1` came in with an IC50 of 41 nM.

For `CC(C)(C)c1ccc(C[C@]2(O)CC[C@H]3[C@@H]4CC=C5C[C@@H](OS(N)(=O)=O)CC[C@]5(C)[C@H]4CC[C@@]32C)cc1`, the IC50 at Steryl-sulfatase [14] worked out at 46 nM; against Steryl-sulfatase [15], 14 nM.

`CCCCCCCCCCCCC(=O)NCCc1ccc(OS(N)(=O)=O)cc1` displayed an IC50 on Steryl-sulfatase [1] of 55.8 nM.

Broadly, the Ki is a dissociation constant, usually derived from enzyme kinetics or from competition with a known ligand. Read a high Ki as a looser hold on the target. The term IC50 denotes the concentration needed to halve the response being measured. A lower IC50 goes with greater potency in that assay.
